Data: patent US12304917B1, “Pleuromutilin derivative containing a thiazolo[5,4-c]pyridine side chain, and a preparation method and application thereof” (SHAANXI UNIVERSITY OF SCIENCE AND TECHNOLOGY, priority 2024, dated 2025)
≈ marks a conversion by molar mass, not a printed value.

Legend:
A549 cells = conditions: human, 24 h
S. aureus ATCC 29213 = assay: MIC by broth microdilution; conditions: Staphylococcus aureus, ATCC29213, 24 h, read-out: Minimum inhibitory concentration S.a.^d
S. enterica ATCC14028 = assay: MIC by broth microdilution; conditions: Salmonella enterica, ATCC14028, 24 h, read-out: Minimum inhibitory concentration S.e.^g
E. coli ATCC 25922 = assay: MIC by broth microdilution; conditions: Escherichia coli, ATCC25922, 24 h, read-out: Minimum inhibitory concentration E.c.^h
HEK293 cells = conditions: human, 24 h
E. coli CMCC 44103 = assay: MIC by broth microdilution; conditions: Escherichia coli, CMCC44103, 24 h, read-out: Minimum inhibitory concentration E.c.^i
A. baumannii ATCC 19606 = assay: MIC by broth microdilution; conditions: Acinetobacter baumannii, ATCC19606, 24 h, read-out: Minimum inhibitory concentration A.b.^f
HepG2 cells = conditions: human, 24 h
[1] = system: Methicillin-resistant S. aureus ATCC 33591; assay: MIC by broth microdilution; conditions: Staphylococcus aureus, ATCC33591|MRSA, 24 h, read-out: Minimum inhibitory concentration MRSA^b
[2] = system: Methicillin-resistant S. aureus ATCC 43300; assay: MIC by broth microdilution; conditions: Staphylococcus aureus, ATCC43300|MRSA, 24 h, read-out: Minimum inhibitory concentration MRSA^c
[3] = system: Methicillin-resistant S. epidermidis ATCC 51625; assay: MIC by broth microdilution; conditions: Staphylococcus epidermidis, ATCC51625|MRSE, 24 h, read-out: Minimum inhibitory concentration MRSE^e
physchem = conditions: thermodynamic from solid

SMILES	CC50 (A549 cells) [µM]	MIC (S. aureus ATCC 29213) [µg/mL]	MIC (S. enterica ATCC14028) [µg/mL]	MIC (E. coli ATCC 25922) [µg/mL]	CC50 (HEK293 cells) [µM]	MIC (E. coli CMCC 44103) [µg/mL]	MIC (A. baumannii ATCC 19606) [µg/mL]	CC50 (HepG2 cells) [µM]	MIC [1] [µg/mL]	MIC [2] [µg/mL]	MIC [3] [µg/mL]	solubility (physchem) [µM]
C=C[C@]1(C)C[C@@H](OC(=O)CS[C@@H]2C[C@H]3CC[C@@H](C2)N3C)[C@]2(C)[C@H](C)CC[C@]3(CCC(=O)[C@H]32)[C@@H](C)[C@@H]1O [Retapamulin, retapamulin, reference compound]	71.5	4 (≈ 7.73 µM)	128 (≈ 247 µM)	32 (≈ 61.8 µM)	57.5	32 (≈ 61.8 µM)	4 (≈ 7.73 µM)	61.1				
C=C[C@]1(C)C[C@@H](OC(=O)CSc2nc3cc[n+](Cc4ccc(C(C)(C)C)cc4)cc3s2)[C@]2(C)[C@H](C)CC[C@]3(CCC(=O)[C@H]32)[C@@H](C)[C@@H]1O [Compound I-11, 5-(4-(tert-butyl)benzyl)-2-((2-(((3aR,4R,5R,7S,8S,9R,9aS,12R)-8-hydroxy-4,7,9,12-tetramethyl-3-oxo-7-vinyldecahydro-4,9a-propancyclopenta[8]cyclo-5-yl)oxy)-2-oxoethyl)thio)thiazolo[5,4-c]pyridin-5-ium]		32	32	32		16	8		64	16	32	
C=C[C@]1(C)C[C@@H](OC(=O)CSCCN(CC)CC)[C@]2(C)[C@H](C)CC[C@]3(CCC(=O)[C@H]32)[C@@H](C)[C@@H]1O [Tiamulin, tiamulin, reference compound]												259 (≈ 128 µg/mL)
C=C[C@]1(C)C[C@@H](OC(=O)CSc2nc3cc[n+](Cc4ccc(Br)cc4)cc3s2)[C@]2(C)[C@H](C)CC[C@]3(CCC(=O)[C@H]32)[C@@H](C)[C@@H]1O [Compound I-1, 5-(4-bromobenzyl)-2-((2-(((3aR,4R,5R,7S,8S,9R,9aS,12R)-8-hydroxy-4,7,9,12-tetramethyl-3-oxo-7-vinyldecahydro-4,9a-propancyclopenta[8]cyclo-5-yl)oxy)-2-oxoethyl)thio)thiazolo[5,4-c]pyridin-5-ium]		16	32	32		32	16		32	16	8	450
C=C[C@]1(C)C[C@@H](OC(=O)CSc2nc3cc[n+](Cc4cc(F)ccc4C#N)cc3s2)[C@]2(C)[C@H](C)CC[C@]3(CCC(=O)[C@H]32)[C@@H](C)[C@@H]1O [Compound I-13, 5-(2-cyano-5-fluorobenzyl)-2-((2-(((3aR,4R,5R,7S,8S,9R,9aS,12R)-8-hydroxy-4,7,9,12-tetramethyl-3-oxo-7-vinyldecahydro-4,9a-propancyclopenta[8]cyclo-5-yl)oxy)-2-oxoethyl)thio)thiazolo[5,4-c]pyridin-5-ium]		64	64	64		32	64		32	64	32	231
C=C[C@]1(C)C[C@@H](OC(=O)CSc2nc3cc[n+](Cc4ccc(OC)cc4)cc3s2)[C@]2(C)[C@H](C)CC[C@]3(CCC(=O)[C@H]32)[C@@H](C)[C@@H]1O [Compound I-4, 5-(4-methoxybenzyl)-2-((2-(((3aR,4R,5R,7S,8S,9R,9aS,12R)-8-hydroxy-4,7,9,12-tetramethyl-3-oxo-7-vinyldecahydro-4,9a-propancyclopenta[8]cyclo-5-yl)oxy)-2-oxoethyl)thio)thiazolo[5,4-c]pyridin-5-ium]		16	32	16		8	32		32	8	64	247
C=C[C@]1(C)C[C@@H](OC(=O)CSc2nc3cc[n+](Cc4ccc(Cl)cc4)cc3s2)[C@]2(C)[C@H](C)CC[C@]3(CCC(=O)[C@H]32)[C@@H](C)[C@@H]1O [Compound I-5, 5-(4-chlorobenzyl)-2-((2-(((3aR,4R,5R,7S,8S,9R,9aS,12R)-8-hydroxy-4,7,9,12-tetramethyl-3-oxo-7-vinyldecahydro-4,9a-propancyclopenta[8]cyclo-5-yl)oxy)-2-oxoethyl)thio)thiazolo[5,4-c]pyridin-5-ium]		8	16	32		32	32		32	32	32	623
C=C[C@]1(C)C[C@@H](OC(=O)CSc2nc3cc[n+](Cc4ccc(C(F)(F)F)cc4)cc3s2)[C@]2(C)[C@H](C)CC[C@]3(CCC(=O)[C@H]32)[C@@H](C)[C@@H]1O [Compound I-2, 5-(4-trifluoromethyl)-2-((2-(((3aR,4R,5R,7S,8S,9R,9aS,12R)-8-hydroxy-4,7,9,12-tetramethyl-3-oxo-7-vinyldecahydro-4,9a-propancyclopenta[8]cyclo-5-yl)oxy)-2-oxoethyl)thio)thiazolo[5,4-c]pyridin-5-ium]		8	8	8		16	32		32	16	16	327
C=C[C@]1(C)C[C@@H](OC(=O)CSc2nc3cc[n+](Cc4ccc(-c5ccccc5)cc4)cc3s2)[C@]2(C)[C@H](C)CC[C@]3(CCC(=O)[C@H]32)[C@@H](C)[C@@H]1O [Compound I-10, 5-([1,1′-biphenyl]-4-ylmethyl)-2-((2-(((3aR,4R,5R,7S,8S,9R,9aS,12R)-8-hydroxy-4,7,9,12-tetramethyl-3-oxo-7-vinyldecahydro-4,9a-propancyclopenta[8]cyclo-5-yl)oxy)-2-oxoethyl)thio)thiazolo[5,4-c]pyridin-5-ium]		8	16	16		32	8		16	64	32	513
C=C[C@]1(C)C[C@@H](OC(=O)CSc2nc3cc[n+](Cc4ccc(F)cc4)cc3s2)[C@]2(C)[C@H](C)CC[C@]3(CCC(=O)[C@H]32)[C@@H](C)[C@@H]1O [Compound I-3, 5-(4-fluorobenzyl)-2-((2-(((3aR,4R,5R,7S,8S,9R,9aS,12R)-8-hydroxy-4,7,9,12-tetramethyl-3-oxo-7-vinyldecahydro-4,9a-propancyclopenta[8]cyclo-5-yl)oxy)-2-oxoethyl)thio)thiazolo[5,4-c]pyridin-5-ium]		16	32	8		16	32		32	16	8	561
C=C[C@]1(C)C[C@@H](OC(=O)CSc2nc3cc[n+](Cc4cc(OC)cc(OC)c4)cc3s2)[C@]2(C)[C@H](C)CC[C@]3(CCC(=O)[C@H]32)[C@@H](C)[C@@H]1O [Compound I-14, 5-(3,5-dimethoxybenzyl)-2-((2-(((3aR,4R,5R,7S,8S,9R,9aS,12R)-8-hydroxy-4,7,9,12-tetramethyl-3-oxo-7-vinyldecahydro-4,9a-propancyclopenta[8]cyclo-5-yl)oxy)-2-oxoethyl)thio)thiazolo[5,4-c]pyridin-5-ium]		64	64	32		64	32		32	32	64	126
C=C[C@]1(C)C[C@@H](OC(=O)CSc2nc3cc[n+](Cc4cc(F)c(F)cc4F)cc3s2)[C@]2(C)[C@H](C)CC[C@]3(CCC(=O)[C@H]32)[C@@H](C)[C@@H]1O [Compound I-7, 5-(2,4,5-trifluorobenzyl)-2-((2-(((3aR,4R,5R,7S,8S,9R,9aS,12R)-8-hydroxy-4,7,9,12-tetramethyl-3-oxo-7-vinyldecahydro-4,9a-propancyclopenta[8]cyclo-5-yl)oxy)-2-oxoethyl)thio)thiazolo[5,4-c]pyridin-5-ium]		64	64	128		64	128		128	64	64	656
C=C[C@]1(C)C[C@@H](OC(=O)CSc2nc3cc[n+](Cc4cc(C)cc(C)c4)cc3s2)[C@]2(C)[C@H](C)CC[C@]3(CCC(=O)[C@H]32)[C@@H](C)[C@@H]1O [Compound I-12, 5-(3,5-dimethylbenzyl)-2-((2-(((3aR,4R,5R,7S,8S,9R,9aS,12R)-8-hydroxy-4,7,9,12-tetramethyl-3-oxo-7-vinyldecahydro-4,9a-propancyclopenta[8]cyclo-5-yl)oxy)-2-oxoethyl)thio)thiazolo[5,4-c]pyridin-5-ium]		16	64	64		32	32		64	64	32	549
